# Measured values taken from the supplement of paper PMC10307832.
# Key:
# Experiment in all cases: relative viability (nuclei count vs DMSO), 5 days (fraction); higher = more cells survive
# [1] = compound: O=c1[nH]cc(F)c(=O)[nH]1 [5-Fluorouracil] + CS(=O)(=O)N1CCN(Cc2cc3nc(-c4cccc5[nH]ncc45)nc(N4CCOCC4)c3s2)CC1 [Pictilisib] (partner 1 µM)
# Method in brief: (§1)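 Medians of duplicate plates are given as relative viability. That measure is the nuclei count in treated wells divided by the count in vehicle wells. Counts were taken on 4× images of lung cancer cell lines in 1536-well plates, 5 days after pin-tool dosing the day after seeding with one drug alone or a fixed anchor-drug dose plus five library-drug doses (not always all listed) in √10 steps.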
# Sulindac + Luminespib = compound: CC1=C(CC(=O)O)c2cc(F)ccc2/C1=C\c1ccc([S+](C)[O-])cc1 [Sulindac] + CCNC(=O)c1noc(-c2cc(C(C)C)c(O)cc2O)c1-c1ccc(CN2CCOCC2)cc1 [Luminespib] (partner 0.01 µM)
# Method in brief: as §1
# [2] = compound: CN[C@@H]1C[C@H]2O[C@@](C)([C@@H]1OC)n1c3ccccc3c3c4c(c5c6ccccc6n2c5c31)C(=O)NC4 [Staurosporine] + O=C(CCCCCCC(=O)Nc1ccccc1)NO [Vorinostat] (partner 1 µM)
# Method in brief: as §1
# [3] = compound: O=c1[nH]cc(F)c(=O)[nH]1 [5-Fluorouracil] + O=C(CCCCCCC(=O)Nc1ccccc1)NO [Vorinostat] (partner 1 µM)
# Method in brief: as §1
Cell Line,relative viability ([1]; first compound 0.02 µM),relative viability ([1]; first compound 0.2 µM),relative viability ([1]; first compound 0.6325 µM),relative viability ([1]; first compound 2 µM),relative viability (Sulindac + Luminespib; first compound 0.08 µM),relative viability (Sulindac + Luminespib; first compound 0.253 µM),relative viability (Sulindac + Luminespib; first compound 0.8 µM),relative viability (Sulindac + Luminespib; first compound 2.53 µM),relative viability (Sulindac + Luminespib; first compound 8 µM),relative viability ([2]; first compound 0.005 µM),relative viability ([2]; first compound 0.01581 µM),relative viability ([2]; first compound 0.05 µM),relative viability ([2]; first compound 0.1581 µM),relative viability ([2]; first compound 0.5 µM),relative viability ([3]; first compound 0.02 µM),relative viability ([3]; first compound 0.2 µM),relative viability ([3]; first compound 0.6325 µM),relative viability ([3]; first compound 2 µM)
NCI-H520,0.316,0.272,0.271,0.232,0.21,0.204,0.246,0.228,0.199,0.726,0.498,0.384,0.191,0.148,0.673,0.681,0.528,0.394
NCI-H596,0.47,0.375,0.365,0.365,1.08,0.99,0.915,1,0.993,0.59,0.424,0.258,0.192,0.126,0.668,0.553,0.397,0.384
NCI-H647,0.473,0.483,0.429,0.401,0.187,0.125,0.169,0.122,0.134,0.247,0.117,0.0686,0.0506,0.0527,0.432,0.593,0.48,0.187
NCI-H650,0.823,0.674,0.45,0.387,0.796,0.87,0.659,0.644,0.935,0.32,0.162,0.234,0.181,0.151,0.414,0.309,0.264,0.251
NCI-H661,0.35,0.469,0.376,0.433,0.969,0.97,0.852,0.9,0.957,0.854,0.695,0.523,0.239,0.179,0.835,0.818,0.786,0.809
NCI-H727,0.395,0.464,0.369,0.305,0.223,0.338,,0.299,0.443,1.36,0.831,0.453,0.36,0.322,0.953,1.14,1,0.902
NCI-H838,0.414,0.402,0.306,0.269,0.231,0.277,0.243,0.211,0.307,0.36,0.217,0.142,0.171,,0.716,0.637,0.404,0.266
NCI-H1355,0.482,0.493,0.361,0.33,0.612,0.668,,0.601,0.702,0.597,0.227,0.235,0.138,0.111,0.625,0.49,0.264,0.243
NCI-H1395,0.581,0.62,0.578,0.594,0.713,0.68,0.611,0.709,0.643,0.447,0.264,0.288,0.299,0.228,0.728,0.755,0.645,0.756
NCI-H1437,,0.183,0.116,0.1,1.33,1.1,0.912,1.25,1.25,0.577,0.469,0.302,0.235,0.169,0.441,0.301,0.252,0.253
NCI-H1650,0.587,0.537,0.428,0.306,0.201,0.197,,0.192,0.211,0.379,0.414,0.242,0.195,0.0786,0.552,0.386,0.329,0.198
NCI-H1651,0.523,0.57,0.412,0.444,1.08,0.897,,0.8,0.948,0.609,0.537,0.402,0.122,0.116,0.529,0.531,0.246,0.245
NCI-H1666,0.659,0.293,0.292,0.285,1.04,1.03,0.955,1,1.1,0.938,0.824,0.801,0.593,0.446,0.981,0.649,0.577,0.563
NCI-H1734,0.496,0.49,0.427,0.303,0.146,0.186,,0.203,0.23,0.751,0.236,,0.117,0.107,0.807,0.835,0.685,0.464
NCI-H1755,0.453,0.5,0.301,0.184,0.546,0.829,0.399,0.536,0.486,0.555,0.477,0.223,0.189,0.218,0.777,0.493,0.307,0.306
NCI-H1793,0.37,0.376,0.303,0.247,0.188,0.168,0.163,0.169,0.265,0.635,,0.164,0.11,0.0792,0.801,0.814,0.723,0.502
NCI-H1915,0.958,0.908,1.01,0.773,1.07,0.883,,0.909,0.813,0.452,0.178,0.148,0.0885,0.0702,0.404,0.493,0.587,0.407
NCI-H1944,0.4,0.357,0.295,0.243,0.753,0.838,0.706,0.864,0.963,0.469,0.267,0.282,0.12,0.118,0.5,0.372,0.201,0.164
NCI-H1975,0.309,0.308,0.262,0.217,0.189,0.205,0.159,0.174,0.267,0.297,0.232,0.218,0.146,0.105,0.748,0.457,0.302,0.215
NCI-H1993,0.793,0.657,0.661,0.779,0.718,0.774,0.645,0.961,0.988,0.588,0.275,0.475,0.344,0.232,0.846,0.552,0.494,0.547
NCI-H2009,0.798,0.679,0.533,0.446,1.15,1.01,1.05,0.986,1.15,0.576,0.185,0.166,0.109,0.0558,0.75,0.825,0.753,0.396
NCI-H2023,0.283,0.164,0.0894,0.0821,0.923,0.845,,0.649,0.92,0.313,0.14,0.0786,0.0748,0.0408,0.369,0.124,0.103,0.0849
NCI-H2085,0.461,0.504,0.445,0.507,0.39,0.414,0.426,0.428,0.36,0.58,0.296,0.407,0.229,0.183,0.754,0.96,0.728,0.651
NCI-H2087,0.912,0.916,0.607,0.602,0.196,0.164,,0.148,0.167,0.628,0.407,0.354,0.0753,0.0552,0.801,0.924,0.515,0.367
NCI-H2126,0.504,0.354,0.305,0.306,0.963,0.804,0.888,0.991,0.955,0.784,0.201,0.426,0.233,,0.59,0.296,0.279,0.262
NCI-H2170,0.354,0.338,0.314,0.285,0.782,0.755,0.941,0.671,0.627,0.875,,0.488,0.0663,0.0848,0.796,0.704,0.33,0.292
NCI-H2228,0.378,0.309,0.205,0.201,0.115,0.129,0.131,0.185,0.163,0.449,0.188,0.126,0.0779,0.0804,0.665,0.373,0.407,0.321
NCI-H2347,0.688,0.44,0.407,0.363,0.302,0.478,,0.411,0.519,0.409,0.378,0.274,0.264,0.228,0.64,0.41,0.41,0.431
NCI-H2405,0.566,0.536,0.303,0.463,0.455,0.647,0.686,0.752,0.754,0.199,0.147,0.131,0.0894,0.0973,1.02,1.14,0.931,0.522
NCI-H3122,0.608,0.662,0.312,0.256,0.136,0.0774,0.0891,0.0935,0.105,1.04,,0.549,,0.131,0.985,0.867,0.392,
